Data from patent US6448436B1, “Integrated process for the production of 2, 6-naphthalene dicarboxylic acid” (Mossi & Ghisolfi Overseas, S. A., priority 1999, dated 2002).

Experiment: Solubility of the potassium salts equilibrated in aqueous potassium carbonate solutions
Assay type: physicochemical
Excerpt: The data was gathered by equilibrating the potassium salts of 2-KNA and 2,6-K2NDA in aqueous solutions of potassium carbonate. The capped jars were contained in water baths to control the temperature and were magnetically stirred to speed the dissolution of the solids. Data derived from the solubility studies are outlined in Table 6.

[1] = 10 wt % K2CO3 aqueous solution, 35° C.
[2] = 15 wt % K2CO3 aqueous solution, 35° C.
[3] = 20 wt % K2CO3 aqueous solution, 35° C.
[4] = 20 wt % K2CO3 aqueous solution, 80° C.
[5] = 25 wt % K2CO3 aqueous solution, 35° C.
[6] = 25 wt % K2CO3 aqueous solution, 80° C.
[7] = 30 wt % K2CO3 aqueous solution, 35° C.
[8] = 30 wt % K2CO3 aqueous solution, 80° C.

Compound	Solubility Ratio 2,6-K2NDA/2-KNA (10 wt % K2CO3, 35° C.)	Solubility [1] [wt %]	Solubility Ratio 2,6-K2NDA/2-KNA (15 wt % K2CO3, 35° C.)	Solubility [2] [wt %]	Solubility Ratio 2,6-K2NDA/2-KNA (20 wt % K2CO3, 35° C.)	Solubility Ratio 2,6-K2NDA/2-KNA (20 wt % K2CO3, 80° C.)	Solubility [3] [wt %]	Solubility [4] [wt %]	Solubility Ratio 2,6-K2NDA/2-KNA (25 wt % K2CO3, 35° C.)	Solubility Ratio 2,6-K2NDA/2-KNA (25 wt % K2CO3, 80° C.)	Solubility [5] [wt %]	Solubility [6] [wt %]	Solubility Ratio 2,6-K2NDA/2-KNA (30 wt % K2CO3, 35° C.)	Solubility Ratio 2,6-K2NDA/2-KNA (30 wt % K2CO3, 80° C.)	Solubility [7] [wt %]	Solubility [8] [wt %]	Temperature dependence of solubility (aqueous K2CO3 solutions, 35° C. vs 80° C.)
O=C([O-])c1ccc2cc(C(=O)[O-])ccc2c1.[K+].[K+] [2,6-K2NDA, dipotassium salt of 2,6-NDA]	0.41	13.8	0.52	6.8	1.13	0.13	2.4	5.5	1.41	0.08	0.6	1.6	1.33	0.08	0.2	0.6	only a weak function of temperature
O=C([O-])c1ccc2ccccc2c1.[K+] [2-KN]	–	33.9	–	13.2	–	–	2.1	41.1	–	–	0.4	19.2	–	–	0.2	7.4	–
